Assay results published in ChEMBL document CHEMBL1201862, “PubChem BioAssay data set” (2004).
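Step 1: Grow cells in 96-well plates. Step 2: Expose to compound for 48 hours at 5 concentrations. Step 3: Interpolate endpoints linearly; if unreached, use highest concentration. The concentration for 50% growth inhibition is given as GI50.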 Activity calls are given as the source filed them. Rule as the data show it: active = GI50 up to about 1.1 µM and inactive = higher.

What was measured:
Experiment in all cases: NCI-60 cell line screen, 48 h
CAKI-1 = system: CAKI-1
DU-145 = system: DU-145
SN12C = system: SN12C
MDA-MB-231 = system: MDA-MB-231
786-0 = system: 786-0
OVCAR-4 = system: OVCAR-4
SF-295 = system: SF-295
SK-MEL-2 = system: SK-MEL-2
SK-MEL-5 = system: SK-MEL-5
K562 = system: K562
NCI/ADR-RES = system: NCI/ADR-RES
HT-29 = system: HT-29
NCI-H226 = system: NCI-H226
SF-539 = system: SF-539
SNB-75 = system: SNB-75
A498 = system: A498
HCT-15 = system: HCT-15
SF-268 = system: SF-268
HOP-62 = system: HOP-62
TK-10 = system: TK-10
SNB-19 = system: SNB-19
HOP-92 = system: HOP-92
MDA-MB-435 = system: MDA-MB-435
RPMI-8226 = system: RPMI-8226
M14 = system: M14
COLO 205 = system: COLO 205
OVCAR-5 = system: OVCAR-5
T47D = system: T47D
NCI-H23 = system: NCI-H23
U-251 = system: U-251
EKVX = system: EKVX
UO-31 = system: UO-31
NCI-H522 = system: NCI-H522
SR = system: SR
SK-MEL-28 = system: SK-MEL-28
HL-60 = system: HL-60
BT-549 = system: BT-549
Hs-578T = system: Hs-578T
CCRF-CEM = system: CCRF-CEM
SK-OV-3 = system: SK-OV-3
MCF7 = system: MCF7
A549 = system: A549
OVCAR-3 = system: OVCAR-3
Malme-3M = system: Malme-3M
NCI-H460 = system: NCI-H460
MOLT-4 = system: MOLT-4
KM12 = system: KM12
UACC-257 = system: UACC-257
HCT-116 = system: HCT-116
SW-620 = system: SW-620
IGROV-1 = system: IGROV-1
OVCAR-8 = system: OVCAR-8
LOX IMVI = system: LOX IMVI
PC-3 = system: PC-3
ACHN = system: ACHN
RXF 393 = system: RXF 393
MDA-N = system: MDA-N
UACC-62 = system: UACC-62

CCC1([N+](=O)[O-])CN(N=O)C1
GI50 (CAKI-1): > 100 µM (inactive) | GI50 (DU-145): > 100 µM (inactive) | GI50 (SN12C): > 100 µM (inactive) | GI50 (MDA-MB-231): > 100 µM (inactive) | GI50 (786-0): > 100 µM (inactive) | GI50 (OVCAR-4): > 100 µM (inactive) | GI50 (SF-295): > 100 µM (inactive) | GI50 (SK-MEL-2): > 100 µM (inactive) | GI50 (SK-MEL-5): > 100 µM (inactive) | GI50 (K562): > 100 µM (inactive) | GI50 (NCI/ADR-RES): > 100 µM (inactive) | GI50 (HT-29): > 100 µM (inactive) | GI50 (NCI-H226): > 100 µM (inactive) | GI50 (SF-539): > 100 µM (inactive) | GI50 (SNB-75): > 100 µM (inactive) | GI50 (A498): > 100 µM (inactive) | GI50 (HCT-15): > 100 µM | GI50 (SF-268): > 100 µM (inactive) | GI50 (HOP-62): > 100 µM (inactive) | GI50 (TK-10): > 100 µM (inactive) | GI50 (SNB-19): > 100 µM (inactive) | GI50 (HOP-92): 34.4 µM (inactive) | GI50 (MDA-MB-435): > 100 µM (inactive) | GI50 (RPMI-8226): > 100 µM (inactive) | GI50 (M14): > 100 µM (inactive) | GI50 (COLO 205): > 100 µM (inactive) | GI50 (OVCAR-5): > 100 µM (inactive) | GI50 (T47D): > 100 µM (inactive) | GI50 (NCI-H23): > 100 µM (inactive) | GI50 (U-251): > 100 µM (inactive) | GI50 (EKVX): > 100 µM (inactive) | GI50 (UO-31): > 100 µM (inactive) | GI50 (NCI-H522): > 100 µM (inactive) | GI50 (SR): > 100 µM (inactive) | GI50 (SK-MEL-28): > 100 µM (inactive) | GI50 (HL-60): > 100 µM (inactive) | GI50 (BT-549): > 100 µM (inactive) | GI50 (Hs-578T): > 100 µM (inactive) | GI50 (CCRF-CEM): > 100 µM (inactive) | GI50 (SK-OV-3): > 100 µM (inactive) | GI50 (MCF7): > 100 µM (inactive) | GI50 (A549): > 100 µM (inactive) | GI50 (OVCAR-3): > 100 µM (inactive) | GI50 (Malme-3M): > 100 µM (inactive) | GI50 (NCI-H460): > 100 µM (inactive) | GI50 (MOLT-4): > 100 µM (inactive) | GI50 (KM12): > 100 µM (inactive) | GI50 (UACC-257): > 100 µM (inactive) | GI50 (HCT-116): > 100 µM (inactive) | GI50 (SW-620): > 100 µM (inactive) | GI50 (IGROV-1): > 100 µM (inactive) | GI50 (OVCAR-8): > 100 µM (inactive) | GI50 (LOX IMVI): > 100 µM (inactive) | GI50 (PC-3): > 100 µM (inactive) | GI50 (ACHN): > 100 µM (inactive) | GI50 (RXF 393): > 100 µM (inactive) | GI50 (MDA-N): > 100 µM (inactive) | GI50 (UACC-62): > 100 µM (inactive)
